Entries after “also recorded” stand apart in the source; their conditions may differ. Ends that are not written are not given here.
How the values were obtained:
Format in all cases: cell-based, human
[1] = test system: CD4+ or CD8+ T cells from HIV+ subjects; assay: Intracellular cytotoxin staining (ICS), CD4+ or CD8+ T cells from HIV+ responders; conditions: for cytotoxin and CD107a expression in CD4+ and CD8+ T cells (in words): p24 peptides; for cytotoxin / CTL-associated activity (in words): RT pools and peptides
Experimental: Briefly, 1×10^6PBMCs (freshly isolated) are stimulated with 20 μg of peptides for 6 hours in a total volume of 200 μL in a 96-well plate in presence of Golgi transport inhibitor (37° C., 5% CO2). […] Cells were stained with the LIVE/DEAD® fixable yellow dye (Invitrogen, Eugene, Oreg.). […] The flow cytometry data is collected using BD LSRII and analyzed with the FACS DIVA software.
The cells were subsequently fixed and permeabilized with Cytofix/Cytoperm solution (BD Biosciences) before reaction with anti-cytotoxin antibodies. The antibodies consisted of anti-CD3 APC-H7, anti-CD4 BD Horizon V450, and anti-CD8 FITC followed by anti-GrzB Alexa 700 and anti-GrzA PE (all from BD Biosciences), and anti-perforin PerCP (Abcam, Boston, Mass.).
(§1) In both analyses, 1.0-2.0×10^4 cells were fixed in phosphate-buffered saline (PBS) containing 2% paraformaldehyde and analyzed on BD LSRII using […] Software (BD Biosciences), with a positive threshold of 3% CFSE^low for CFSE-proliferation and 1% T cells expressing cytotoxin for ICS. The final value for each subject was derived after subtraction of the subject's medium control and the average value of peptide-stimulated cells from uninfected control subjects.
Flow cytometry (FACS) for measuring CFSE-proliferation and intracellular cytokine staining (ICS).
Both analyses were performed with BD LSRII and […]™ Software (BD Biosciences), using a positive threshold of >1% CFSE^low for CFSE-proliferation except for ICS studies with threshold of >0.1% T cells expressing cytotoxin.

[2] = test system: CD3+CD8+ T cells from HIV+ subjects; assay: CFSE-proliferation, CD3+CD8+ T cells from HIV+ subjects; conditions: for CD8^+ T-cell Responder Frequency: responders/tested; for responder frequency of CD8+ T-cell proliferation to individual F3 peptides: eight F3 responders
Experimental: (§2) 2×10^5-5×10^5 CFSE labeled PBMCs were incubated with 15-20 μg of peptides in 600 μL of RPMI media with 10% FBS for 5 days at 37° C. (5% CO2). After harvesting, they were labeled with allophycocyanin (APC), APC-H7, and Pacific Blue labeled monoclonal antibodies (MAb) to human CD3, CD4, and CD8, respectively and analyzed for T-cell proliferation by flow cytometry using BD LSRII (BD Biosciences). The proliferating CD4^+ or CD8^+ T cell populations were defined from the CD3^+ cell population as either CD3^+CD8^+ or CD3^+CD4^+T cells (mutually exclusive) with low CFSE (CFSE^low) staining.
(§3) Flow cytometry (FACS) for carboxyfluoresein diacetate succinimide ester (CFSE)-proliferation and intracellular cytotoxin staining (ICS). The CFSE-proliferation analysis was performed on PBMC according to the manufacturer's protocol (Invitrogen, Carlsbad, Calif.) and processed as previously described (Lichterfeld et al. (2004)). Modifications consisted of using 2.0-5.0×10^5 CFSE-labeled cells stimulated for 5 days (37° C., 5% CO^2) with 30 μg/well of total peptides in a pool (15 μg/well for individual peptide, Table 10) or 5 μg/mL PHA in AIM V medium containing 25 μg/mL of gentamycin and 10% heat-inactivated human serum. Subsequently these cells were harvested and labeled with the LIVE/DEAD fixable yellow dye (Invitrogen) and then treated 5 min with anti-CD16/CD32 antibody (Biolegend, San Diego, Calif.) for blocking non-specific binding before phenotype-specific antibodies. The following antibodies were used for the CFSE-proliferation analysis: anti-CD4 APC, anti-CD3 APC-H7, and anti-CD8 Pacific Blue (BD Biosciences, San Jose, Calif.).
as §1
(§4) Flow cytometry (FACS) for measuring CFSE-proliferation and intracellular cytokine staining (ICS). Carboxyfluorescein diacetate succinimide ester (CFSE)-proliferation analysis was performed according to the manufacturer's protocol (Invitrogen) and processed as previously described (Lichterfeld et al. 2004) using the following modification: 2.5-5.0×10^5 CFSE-labeled PBMC stimulated for 4-5 days (37° C., 5% CO2) with 15-30 μg of peptides in culture media (AIM V medium, 25 μg/mL gentamycin, and 10% heat-inactivated fetal bovine serum). The ICS analysis was performed as previously described (Horton et al. 2007; Pattacini et al. 2012).
(§5) The antibodies used for the proliferation analysis consisted of anti-CD4 allophycocyanin (APC) anti-CD3 APC-H7, and anti-CD8 Pacific Blue, and those for ICS were anti-CD3 APC-H7, anti-CD4 BD Horizon V450, anti-CD8 FITC, anti-granzyme B (GrzB) Alexa 700, anti-granzyme A (GrzA) PE (BD Biosciences, Cat #555349, 560176, 558207, 560345, 555366, 560213, 558904), and anti-perforin PerCP (Abcam, Cat #ab86319). Both analyses were performed with BD LSRII and […]™ Software (BD Biosciences), using a positive threshold of >1% CFSE^low for CFSE-proliferation except for ICS studies with threshold of >0.1% T cells expressing cytotoxin. The final value for each subject was derived after subtracting the result of each HIV^+ subject with the media control followed by subtraction with the average response of the media-control subtracted HIV^− subjects.

[3] = test system: CD3+CD4+ T cells from HIV+ subjects; assay: CFSE-proliferation, CD3+CD4+ T cells from HIV+ subjects; conditions: for CD4^+ T-cell Responder Frequency: responders/tested
Experimental: as §2, §3, §1, §4, §5

[4] = test system: CD8+ T cells from HIV+ subjects; assay: Intracellular cytotoxin staining (ICS: perforin, GrzA, GrzB, CD107a), CD8+ T cells from HIV+ subjects
Experimental: Briefly, 1×10^6PBMCs (freshly isolated) are stimulated with 20 μg of peptides for 6 hours in a total volume of 200 μL in a 96-well plate in presence of Golgi transport inhibitor (37° C., 5% CO2). The cells are processed as previously described (Horton et al. (2007)). Cells were stained with the LIVE/DEAD® fixable yellow dye (Invitrogen, Eugene, Oreg.). The monoclonal antibodies fluorochome-conjugated to human cytokines used are: APC-H7 to CD3 (clone SK7); BD Horizon V450 to CD4 (clone RPA-T4); Qdot to CD8 (clone 3B5); PE-cy7 to IFN-γ (clone 4S.B3); APC to IL-2 (clone MQ1-17H12) PerCP to perforin (clone B-D48); Alexa F1.700 to granzyme-B (clone GB11) and PE to granzyme-A (clone CB9). The flow cytometry data is collected using BD LSRII and analyzed with the FACS DIVA software.
The ICS analysis (Horton et al. (2007)) involved stimulating 0.5-1.0×10^6 freshly isolated PBMC for 6 h with the same peptide stimulant and culture conditions as the proliferation analysis in the presence of 1 μg/mL of Golgi transport inhibitor and monensin followed by labeling with LIVE/DEAD fixable yellow dye and then treatment with anti-CD16/CD32 antibody and T-cell phenotypic antibodies. The cells were subsequently fixed and permeabilized with Cytofix/Cytoperm solution (BD Biosciences) before reaction with anti-cytotoxin antibodies. The antibodies consisted of anti-CD3 APC-H7, anti-CD4 BD Horizon V450, and anti-CD8 FITC followed by anti-GrzB Alexa 700 and anti-GrzA PE (all from BD Biosciences), and anti-perforin PerCP (Abcam, Boston, Mass.).
as §1, §4, §5

[5] = large 13-15mer peptides, yr 2, responders to Fp9 or Fp14 pool via CFSE proliferation
[6] = small 9-13mer peptides, yr 4, responders to Fp9 or Fp14 pool via both proliferation and IFNγ

Row | Molecule | cytotoxin and CD107a expression in CD4+ and CD8+ T cells (in words) [1] | CD8^+ T-cell Responder Frequency [2, 6] | CD8^+ T-cell Responder Frequency (%) [2, 6] | CD4^+ T-cell Responder Frequency [3, 6] | CD4^+ T-cell Responder Frequency (%) [3, 6] | also measured
1 | CSCC[C@H](NC(=O)[C@H](Cc1c[nH]c2ccccc12)NC(=O)[C@H](CC(N)=O)NC(=O)[C@H](CCCCN)NC(=O)[C@@H](NC(=O)[C@H](C)NC(=O)[C@H](C)NC(=O)[C@H](CC(=O)O)NC(=O)[C@@H](N)[C@@H](C)O)C(C)C)C(=O)N[C@H](C(=O)O)[C@@H](C)O [Sp14-1c] | slightly lower number of responses |  |  |  |  | 
2 | AEARFAPARMQCRAW [Fp9-2] |  |  |  |  |  | CD8^+ T-cell Responder Frequency (%) [2, 5]: (43) %; CD8^+ T-cell Responder Frequency [2, 5]: 3/7; Fp9 responders whose CD8+ T cells proliferate to individual 13-15mer peptide ([2]; seven Fp9 responders): 3 of 7; CD4^+ T-cell Responder Frequency (%) [3, 5]: (14) %; CD4^+ T-cell Responder Frequency [3, 5]: 1/7
3 | AEQASQEVKN [Hp15-1c] | high cytotoxin and CD107a expression |  |  |  |  | 
4 | AEVKLYLKQSLSI [Fp14-3d] |  |  |  |  |  | Cytotoxins ([1]; responders to Fp9 or Fp14 peptide pools): Low Cytotoxins (only CD8)
5 | EQQAEARFAPARM [Fp9-1] |  |  |  |  |  | CD8^+ T-cell Responder Frequency (%) [2, 5]: (14) %; CD8^+ T-cell Responder Frequency [2, 5]: 1/7; CD4^+ T-cell Responder Frequency (%) [3, 5]: (0) %; CD4^+ T-cell Responder Frequency [3, 5]: 0/7
6 | Fp9-1/2a (EARFAPARM) |  | 5/9 | (56) % | 0/9 | (0) % | 
7 | Fp9-2/3b (APARMQCRA) |  | 3/9 | (33) % | 0/9 | (0) % | 
8 | Fp9-3e (ARMQCRAWYL) |  | 3/9 | (33) % | 1/9 | (11) % | 
9 | Fp9-3f (APARMQCRAWYL) |  | 4/9 | (44) % | 1/9 | (11) % | 
10 | Fp14-1/2a (NTAEVKLYL) |  | 4/10 | (40) % | 1/10 | (10) % | 
11 | Fp14-2/3b (AEVKLYLKQ) |  | 3/10 | (30) % | 1/10 | (10) % | 
12 | Fp14-2/3c (AEVKLYLKQSL) |  | 9/10 | (90) % | 5/10 | (50) % | 
13 | Fp14-3/4g (YLKQSLSIA) |  | 6/10 | (60) % | 0/10 | (0) % | 
14 | IDFRVLNKLTDKGA [F3-5] |  |  |  |  |  | responder frequency of CD8+ T-cell proliferation to individual F3 peptides [2]: 3 of 8
15 | KKKSGKWRMLIDFRV [F3-3] |  |  |  |  |  | cytotoxin / CTL-associated activity (in words) [1]: induce cytotoxin expression
16 | LYLKQSLSI [Fp14-3/4e] | high frequency of cytotoxin expression |  |  |  |  | 
17 | NPWNTPVFAIKKK [F3-1] |  |  |  |  |  | cytotoxin / CTL-associated activity (in words) [1]: induced CTL-associated activities
18 | QASQEVKNWM [Hp15-1a] | high cytotoxin and CD107a expression |  |  |  |  | 
19 | QEQNTAEVKL [Fp14-1a] | high cytotoxin and CD107a expression |  |  |  |  | 
20 | QNTAEVKLYL [Fp14-1b] | high frequency of cytotoxin expression; also recorded: high cytotoxin and CD107a expression |  |  |  |  | 
21 | TPVFAIKKKSGKWRM [F3-2] |  |  |  |  |  | responder frequency of CD8+ T-cell proliferation to individual F3 peptides [2]: 3 of 8
22 | VKNWMTQTL [Sp14-1a] | slightly lower number of responses |  |  |  |  | 
23 | WRMLIDFRVLNKL [F3-4] |  |  |  |  |  | cytotoxin expression / CTL-associated activity in CD8+ T cells (in words) [4]: highest frequency and levels; cytotoxin / CTL-associated activity (in words) [1]: induced CTL-associated activities

Source: patent publication US10905757B2, “Cross-reactive T cell epitopes of HIV, SIV, and FIV for vaccines in humans and cats” (priority 2012, dated 2021)
